Assay results taken from patent publication US8093268B2, “Pharmaceutical compositions comprising 2-methoxy-5-(5-trifluoromethyl-tetrazol-1-yl-benzyl)-(2S-phenylpiperidin-3S-yl-)” (Glaxo Group Limited, priority 2007, dated 2012).

Assays:
rats = assay: FCA (Freunds Complete Adjuvant) model of inflammatory hypersensitivity to pain, weight bearing; type: in vivo, rat
Procedure: • Naïve weight bearing readings were taken. The hypersensitivity to pain was measured using the Rat incapacitance tester (Linton instruments). This instrument is serviced once a year and should be regularly calibrated • All rats then received an intraplantar injection of 100 ul of FCA (Freund's complete adjuvant) into the left hind paw. The FCA was sonicated for 15 minutes prior to use. • Approximately 23 hrs after administration of the FCA, pre-dose weight bearing readings were taken. All animals were then ranked and randomised for dosing according to their FCA window (predose difference in grams−naïve difference in grams). […] Celebrex 10 mg/kg p.o. (positive control) as appropriate according to ranking and randomisation. • Animals were assessed in the weight bearing apparatus 1 hour post dose. • The study was blind and randomised by FCA window using the Latin square method. • % reversals were calculated by using the naïve, pre-dose and post dose values as follows: % Reversal=[(Pre-dose−Post-dose)/(Pre-dose−Naïve)]×100 • Graphs and ED50 were calculated where appropriate using Prism4. • Statistical analysis was carried out using ANOVA followed by calculating the least square means using the statistical package Statistica 6.1 • From the dose response curves the ED20 was determined for the combination study Results • Naïve weight bearing readings were taken. The hypersensitivity to pain was measured using the Rat incapacitance tester (Linton instruments). This instrument is serviced once a year and should be regularly calibrated • All rats then received an intraplantar injection of 100 ul of FCA (Freund's complete adjuvant) into the left hind paw. The FCA was sonicated for 15 minutes prior to use. • Approximately 23 hrs after administration of the FCA, pre-dose weight bearing readings were taken. All animals were then ranked and randomised for dosing according to their FCA window (predose difference in grams−naïve difference in grams). […] See table 5 for details of the groups • Animals were assessed in the weight bearing apparatus 1 hour post dose. • The study was blind and randomised by FCA window using the Latin square method. • % reversals were calculated by using the naïve, pre-dose and post dose values as follows: % Reversal=[(Pre-dose−Post-dose)/(Pre-dose−Naïve)]×100 • Statistical analysis was carried out using ANOVA followed by calculating the least square means using the statistical package Statistica 6.1 • ED50 and ED20 values and graphs were calculated using prism5 • Naïve weight bearing readings were taken. The hypersensitivity to pain was measured using the Rat incapacitance tester (Linton instruments). This instrument is serviced once a year and should be regularly calibrated • All rats then received an intraplantar injection of 100 ul of FCA (Freund's complete adjuvant) into the left hind paw. The FCA was sonicated for 15 minutes prior to use. • Approximately 23 hrs after administration of the FCA, pre-dose weight bearing readings were taken. All animals were then ranked and randomised for dosing according to their FCA window (predose difference in grams−naïve difference in grams). […] Graphs and ED50 were calculated where appropriate using Prism5 • Statistical analysis was carried out using ANOVA followed by calculating the least square means using the statistical package Statistica 6.1 Results

Male CD rats = assay: Rat MEST model (maximal electroshock seizure threshold); type: in vivo
Procedure: This work was conducted in compliance with the Home Office Guidance on the operation of the Animals (Scientific Procedures) Act 1986 and GlaxoSmithKline ethical standards. Male CD rats (100-145 g) were supplied by Charles River, UK. Animals were group housed (6 animal per cage) with free access to food (Standard rodent chow; Harlan, UK) and water under a 12 h light/dark cycle (lights on at 0700 h). A period of at least one week between arrival at GSK and the study was allowed in all cases.
Animals were administered a test compound at the appropriate dose, route and pre-treatment time and returned to their home cage. Testing occurred in a separate room from that used for housing. Testing involved determining the threshold for tonic hindlimb extensor seizures using a Hugo Sachs Electronik stimulator which delivers a constant current of 0.3 second duration, 50 Hz, sinewave form, fully adjustable between 1 and 300 mA. Stimuli were delivered via corneal electrodes (Stean T O, Atkins A R, Heidbreder C A, Quinn L P, Trail B K, Upton N. (2005) Br J. Pharmacol. 144(5):628-35). Seizure threshold was determined using the ‘up and down’ method of Kimball et al. (1957)(Kimball A W, Burnett W T Jr, Doherty D G. (1957) Radiat Res. 7(1):1-12). The first animal tested in each group was stimulated with a current that might be expected to be close to the threshold for induction of a seizure. If a tonic seizure was not induced, then then next animal in the group received a stimulus 5 mA higher. If a tonic seizure was induced, then the next animal received a stimulus 5 mA lower. This is repeated for all animals within the control (vehicle) group. In the case of groups treated with a sodium channel blocker steps of 10 to 30 mA were used.
(§1) All doses were calculated as base. ENa9 and ENa13 were dosed via the subcutaneous (s.c.) route at 1 ml/kg in a 2% v/v DMSO/saline vehicle 30 minutes prior to test. ENa7 and ENa14 were dosed orally (p.o.) in a 1% w/v methylcellulose/water vehicle at 2 ml/kg, 60 minutes before test. Compound ENK6 was dosed with via the intraperitoneal (i.p.) route 60 minutes before the test or via the s.c. route 15 minutes before test. In both cases ENK6 was dissolved in saline.
Induction of seizure is measured as an all-or-nothing effect scored as either present (+) or absent (0) for each animal. The data for each treatment group were recorded as the number of +'s and 0's at each current level employed and this information was then used to calculate the CC50 value (current required for 50% of animals to show seizure behaviour)+standard error of the mean according to the method of Kimball et al. (1957). Drug effects were calculated as the % change in CC50. Significant differences between drug-treated animals and appropriate vehicle treated groups were assessed according to the methods of Litchfield and Wilcoxon (1949). The statistical significance of differences between sodium channel blocker alone or in combination with ENK6 was assessed using a Student's t test.

[1] = Blood and brain concentrations in satellite animals of the MEST studies; type: in vivo, rat; settings: 1 and 3 mg/kg s.c. with ENK6 30 mg/kg i.p.
Procedure: Satellite animals (n=3/group) received the same drugs or combinations of drugs as the test groups, and were culled at the appropriate time after dosing. Blood and brain samples were taken for analysis of the drug concentrations in these compartments.
as §1

[2] = ED20 dose alone (ENa7 0.1 mg/kg p.o.; ENK6 0.08 mg/kg s.c.)
[3] = 3 mg/kg s.c., 30 min before test, alone
[4] = FIG. 3, group marked by vertical arrow, ENK6 10 mg/kg sc 15 min ptt, Ena7 1 & 3 mg/kg po 60 min ptt

## COc1ccc(-n2nnnc2C(F)(F)F)cc1CN[C@H]1CCCN[C@H]1c1ccccc1.Cl.Cl [ENK6, [2-Methoxy-5-(5-trifluoromethyl-tetrazol-1-yl)-benzyl]-([2S,3S]-2-phenyl-piperidin-3-yl)-amine dihydrochloride]
rats; 0.1-3.0 mg/kg, alone, 1 hour post dose, dihydrochloride
  effect on FCA induced hypersensitivity: dose related reversal of the FCA induced hypersensitivity
rats; [2]
  effect on FCA induced hypersensitivity: no significant effect on the FCA induced hypersensitivity
rats; s.c., alone (summary of results)
  ED20, reversal of FCA induced hypersensitivity: approx 0.08 mg/kg
Male CD rats; 10 mg/kg s.c., 15 min before test, alone (first experiment)
  effect on seizure threshold: no effect on seizure threshold
Male CD rats; 30 mg/kg i.p., 60 min before test, alone
  effect on seizure threshold: no effect on seizure threshold
Male CD rats; 30 mg/kg s.c., 15 min before test, alone
  effect on seizure threshold: no effect on seizure threshold

## Nc1nc(N)c(-c2cccc(Cl)c2Cl)c(CF)n1 [ENa15, R(−)-2,4-diamino-5-(2,3-dichlorophenyl)-6-fluoromethyl pyrimidine methanesulphonate]
Male CD rats; 0.3 mg/kg p.o., 60 min before test, alone
  effect on seizure threshold: no increase in seizure threshold
Male CD rats; 1 mg/kg p.o. in the presence of ENK6 30 mg/kg s.c.
  increase in CC50(mA): 51%

## Cl.NC(=O)[C@@H]1CC[C@H](c2ccc(OCc3ccccc3F)cc2)N1 [ENa9, (5R)-5-(4-{[(2-fluorophenyl)methyl]oxy}phenyl)-L-prolinamide hydrochloride]
Male CD rats; [3]
  effect on seizure threshold: small, but significant increase in seizure threshold
[1]
  blood or brain concentration in the presence of ENK6 versus alone: No increase

## Nc1nnc(-c2cccc(Cl)c2Cl)c(N)n1 [ENa7, 3,5-diamino-6-(2,3-dichlorophenyl)-1,2,4-triazine, reference compound]
rats; 0.1-3.0 mg/kg, alone, 1 hour post dose
  effect on FCA induced hypersensitivity: dose related reversal of the FCA induced hypersensitivity
rats; [2]
  effect on FCA induced hypersensitivity: no significant effect on the FCA induced hypersensitivity
Male CD rats; 1 mg/kg p.o., 60 min before test, alone
  effect on seizure threshold: little or no increase in seizure threshold
Male CD rats; [4]
  CC50 value: greater than 180 mA
  increase in CC50: > 780%

## CN1CC[C@]2(CC[C@H](c3ccc(OCc4ccccc4F)cc3)N2)C1=O.Cl [ENa13, (2R,5R)-2-(4-{[(2-Fluorophenyl)methyl]oxy}phenyl)-7-methyl-1,7-diazaspiro[4,4]nonan-6-one hydrochloride]
Male CD rats; [3]
  effect on seizure threshold: robust and significant increase in seizure threshold
[1]
  blood or brain concentration in the presence of ENK6 versus alone: No increase
